Laboratory results published in patent publication US20170087125A1, “FLAVONOID COMPOSITIONS FOR THE TREATMENT OF CANCER” (Augusta University Research Institute, Inc., priority 2015, published 2017).
Where two headings read alike, the source gives them in different places.

Test: Pharmacokinetics in rat plasma after oral and intravenous administration
Type: in vivo, Sprague Dawley rats
Settings: for half-life / AUC / Cmax / Tmax: male, Sprague-Dawley, rat, plasma, 100 mg/kg; for half-life: read-out: t1/2 half-life (converted); for Cmax / Tmax: oral; for Bioavailabilty: rat plasma, ProFine 100 mg/kg (n = 3), oral vs IV
Method: Blood samples were collected at 9 time points, i.e., 0 min, 15 min, 30 min, 60 min, 2 h, 4 h, 8 h, 12 h and 24 h. Plasma levels of Luteolin, Quercetin and Kaempferol were analyzed using HPLC. […]

half-life [h]	AUC (iv, read-out: AUC0.24 (IV)) [ng·h/mL]	Cmax [ng/mL]	Tmax [h]	AUC (po, read-out: AUC0.24 (Oral)) [ng·h/mL]	Bioavailabilty [%]	SMILES
2.26	90100	127	1	1170	1.30	O=c1cc(-c2ccc(O)c(O)c2)oc2cc(O)cc(O)c12 [Ingredient 1, 3′,4′,5,7-tetrahydroxyflavone]
2.45	93800	165	4	2710	2.89	O=c1c(O)c(-c2ccc(O)cc2)oc2cc(O)cc(O)c12 [Ingredient 3, 3,5,7-trihydroxy-2-(4-hydroxyphenyl)-4H-1-benzopyran-4-one]

SMILES	half-life [h]	AUC (iv, read-out: AUC0.24 (IV)) [ng·h/mL]	Cmax [ng/mL]	Tmax [h]	AUC (po, read-out: AUC0.24 (Oral)) [ng·h/mL]	Bioavailabilty [%]
O=c1c(O)c(-c2ccc(O)c(O)c2)oc2cc(O)cc(O)c12 [Ingredient 2, 3,3′,4′5,7-Penthydroxyflavone]	1.71	27200	51.9	1	248	0.91
